PMC12373846, “Hemoglobin as a pseudoperoxidase and drug target for oxidative stress-related diseases” (Signal Transduction and Targeted Therapy, 2025)
Values joined by “and” are separate entries in the source; they are usually repeats but may differ in a detail not shown here. Equal values may be shown once. Read-outs that look alike come from different tables or passages of the source.

Columns and labels:
aged C57BL/6J mice = assay: Immunohistochemistry, aging mice; format: in vivo, mouse; conditions: 30 month, 1 mg/kg/day
Method: Aged 1-year-old C57BL/6J animals were purchased from Janvier Labs (France) and quarantined in the IBS Animal Facility for 2 weeks before the experiment. The animals were weighed, and their water consumption (in grams) was monitored for 3 days before the appropriate drug concentration was calculated for each dose group. The animals were randomly assigned to the drug/control and dose groups. […] The drug concentration (in water) was modified on the basis of changes in animal weight and corresponding water consumption every 3 months. Basal body temperature and body weight were monitored every 2 weeks. The care and handling of the animals were performed in accordance with the guidelines of the Institutional Animal Care and Use Committee of IBS (Daejeon, South Korea).
The mice were deeply anesthetized with 2% isoflurane and positioned on the operating table. After the abdomen was opened and the heart was exposed, the […] were perfused with saline, followed by 4% paraformaldehyde (PFA) in 0.1 M PBS. The mice were decapitated, and the brains were excised from the skull. Excised brains were postfixed in 4% PFA overnight at 4 °C and dehydrated in 30% sucrose for 48 h. Coronal hippocampal sections were cut at 30 µm thickness with a cryostat and stored in storage solution. For the ALS experiments, lumbar spinal cords (L2–L5) were also carefully dissected and immediately immersed in 4% PFA for postfixation. The sections were fully washed in 0.1 M PBS and incubated for 1 h in blocking solution (0.3% Triton X-100, 2% donkey and goat serum in 0.1 M PBS). Next, a mixture of primary antibodies in the blocking solution was used for immunostaining on a shaker overnight at 4 °C. The sections were washed in PBS three times. After washing, the sections were incubated with the corresponding fluorescent secondary antibodies for 1 h at RT. DAPI staining was performed by adding a DAPI solution (1:2000) during the second washing step. After the washing step was complete, the sections were mounted on cover slides with mounting medium. A series of fluorescence images were obtained with an LSM900 (Zeiss, Germany) confocal microscope or Lattice SIM Elyra 7 (Zeiss, Germany). The 15–22 μm Z stack images in 1–2 μm steps were processed for image analysis, which was performed via the ImageJ (NIH, US) and ZEN digital imaging for light microscopy blue system (Zeiss, Germany) programs. The primary antibodies used were as follows: chicken anti-GFAP (1:500, Millipore, ab5541), rabbit anti-amyloid beta (1:500, Abcam, ab2539), mouse anti-NeuN (1:200, Millipore, ab377), rabbit anti-Hbβ (1:200, Abcam, ab214049), mouse anti-Hbβ (1:200, Santacruz, sc-21757), mouse anti-MAOB (1:200, Santacruz, sc-515354), mouse anti-8-OhdG (1:500, Santacruz, sc-393871), rabbit anti-TH (1:500, Pelfreez, p40101), and mouse anti-TH (1:200, Sigma, T2928). The following secondary antibodies from Jackson were diluted (1:500) in blocking solution: donkey-anti-chicken 405, donkey-anti-chicken 647, donkey-anti-rabbit 488, donkey-anti-rabbit 594, donkey-anti-rabbit 647, donkey-anti-guinea pig 488, donkey-anti-guinea pig 647, donkey-anti-mouse 594, and donkey-anti-mouse 647. Serial confocal sections immunolabeled with GFAP were compiled into a maximal projection to assess the GFAP signal within the hippocampus (Z-stacked images, 15–22 μm Z stack images in 1–2 μm steps of brain sections). Sholl analysis, performed via the ImageJ plugin, automatically generated concentric circles with 10-μm spacing from the nucleus (soma) to the farthest astrocytic process. This analysis quantified the intersections of GFAP-labeled processes within each circle, calculating the ramification index and ending radius, enabling the evaluation of astrocytic hypertrophy and morphological changes, as previously described.[78] In the focal GiD mouse model, NeuN-positive CA1 pyramidal neurons were quantified within a 50 × 50 μm^2 region via ImageJ to determine the number of CA1 pyramidal neurons.

COX2(h) = molecular target: T1, COX2(h) (Homo sapiens, UniProt P35354); assay: SafetyScreen87 panel; format: biochemical; conditions: 1.00E-06, read-out: % Inhibition of Control Specific Binding (1st, 2nd, Mean)
T1 construct: purchased Eurofins Discovery (Cerep, France)
T1 sequence (P35354 18-604): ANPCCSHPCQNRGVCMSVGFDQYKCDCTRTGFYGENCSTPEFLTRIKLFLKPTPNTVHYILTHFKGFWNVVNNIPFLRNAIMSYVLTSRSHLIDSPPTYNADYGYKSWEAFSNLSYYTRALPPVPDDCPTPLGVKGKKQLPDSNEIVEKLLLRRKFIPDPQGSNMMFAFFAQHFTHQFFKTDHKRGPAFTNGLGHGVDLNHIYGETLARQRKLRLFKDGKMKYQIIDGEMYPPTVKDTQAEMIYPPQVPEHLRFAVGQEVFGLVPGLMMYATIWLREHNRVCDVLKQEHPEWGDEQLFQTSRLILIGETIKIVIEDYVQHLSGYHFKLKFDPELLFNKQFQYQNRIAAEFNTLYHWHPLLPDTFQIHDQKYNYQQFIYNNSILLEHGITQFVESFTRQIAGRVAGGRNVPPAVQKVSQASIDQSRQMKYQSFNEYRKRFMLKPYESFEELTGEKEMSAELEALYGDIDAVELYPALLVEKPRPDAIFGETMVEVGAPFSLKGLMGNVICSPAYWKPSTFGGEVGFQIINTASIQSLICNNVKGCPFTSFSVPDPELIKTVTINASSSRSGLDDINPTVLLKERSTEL
Method: (§1) The possibility of KDS12025 on kinase off-target, the KINOMEscan panel of scanEDGE assay was conducted in DiscoverX (CA, USA) using a site-directed competition binding with the test compounds. The assay results are given in Supplementary Table 4 and experimental information is available on the DiscoverX web page (www.discoverx.com). Moreover, the Delta SafetyScreen87 panel assay was conducted in Eurofins Discovery (Cerep, France). The assay results are given in Supplementary Table 5 and experimental information is available on the DiscoverX web page (https://www.eurofinsdiscoveryservices.com).

PDE4D2 (h) = molecular target: T2, PDE4D2 (h) (Homo sapiens, UniProt Q08499); assay: SafetyScreen87 panel; format: biochemical
T2 construct: purchased Eurofins Discovery (Cerep, France)
T2 sequence (Q08499 303-809 limits assumed): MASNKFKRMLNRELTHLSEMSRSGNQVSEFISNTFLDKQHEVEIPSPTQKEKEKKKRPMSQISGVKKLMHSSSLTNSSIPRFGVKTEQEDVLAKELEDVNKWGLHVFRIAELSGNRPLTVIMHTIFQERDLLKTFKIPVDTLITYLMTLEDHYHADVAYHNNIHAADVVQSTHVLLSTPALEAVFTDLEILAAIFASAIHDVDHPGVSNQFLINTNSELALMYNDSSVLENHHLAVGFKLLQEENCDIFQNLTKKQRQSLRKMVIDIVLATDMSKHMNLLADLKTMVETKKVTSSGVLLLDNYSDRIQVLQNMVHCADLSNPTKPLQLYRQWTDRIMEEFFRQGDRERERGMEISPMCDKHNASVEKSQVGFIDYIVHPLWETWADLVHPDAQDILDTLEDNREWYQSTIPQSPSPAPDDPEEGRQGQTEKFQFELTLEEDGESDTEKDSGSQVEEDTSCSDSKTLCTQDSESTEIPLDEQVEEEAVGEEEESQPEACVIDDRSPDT
Method: as §1

PKCalpha (h) = molecular target: T3, PKCalpha (h) (Homo sapiens, UniProt P17252); assay: SafetyScreen87 panel; format: biochemical; conditions: 1.00E-06, read-out: % Inhibition of Control Specific Binding (1st, 2nd, Mean)
T3 construct: purchased Eurofins Discovery (Cerep, France)
Method: as §1

Lck kinase (h) = molecular target: T4, Lck kinase (h) (Homo sapiens, UniProt P06239); assay: SafetyScreen87 panel; format: biochemical; conditions: 1.00E-06, read-out: % Inhibition of Control Specific Binding (1st, 2nd, Mean)
T4 construct: purchased Eurofins Discovery (Cerep, France)
T4 sequence (P06239 whole entry): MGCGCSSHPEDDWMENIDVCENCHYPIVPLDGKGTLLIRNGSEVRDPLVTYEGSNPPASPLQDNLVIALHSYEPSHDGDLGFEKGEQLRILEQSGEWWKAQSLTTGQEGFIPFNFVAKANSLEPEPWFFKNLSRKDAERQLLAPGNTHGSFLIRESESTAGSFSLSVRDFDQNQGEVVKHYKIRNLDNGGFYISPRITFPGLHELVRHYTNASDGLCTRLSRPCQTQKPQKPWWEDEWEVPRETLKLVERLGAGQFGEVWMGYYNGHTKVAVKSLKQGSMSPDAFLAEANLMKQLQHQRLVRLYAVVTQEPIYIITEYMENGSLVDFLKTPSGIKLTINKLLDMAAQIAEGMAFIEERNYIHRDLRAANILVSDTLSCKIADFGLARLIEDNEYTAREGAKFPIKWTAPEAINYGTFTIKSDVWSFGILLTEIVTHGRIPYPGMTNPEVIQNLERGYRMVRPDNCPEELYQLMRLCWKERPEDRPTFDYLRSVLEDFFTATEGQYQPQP
Method: as §1

cathepsin G (h) = molecular target: T5, cathepsin G (h) (Homo sapiens, UniProt P08311); assay: SafetyScreen87 panel; format: biochemical; conditions: 1.00E-06, read-out: % Inhibition of Control Specific Binding (1st, 2nd, Mean)
T5 construct: purchased Eurofins Discovery (Cerep, France)
T5 sequence (P08311 21-255): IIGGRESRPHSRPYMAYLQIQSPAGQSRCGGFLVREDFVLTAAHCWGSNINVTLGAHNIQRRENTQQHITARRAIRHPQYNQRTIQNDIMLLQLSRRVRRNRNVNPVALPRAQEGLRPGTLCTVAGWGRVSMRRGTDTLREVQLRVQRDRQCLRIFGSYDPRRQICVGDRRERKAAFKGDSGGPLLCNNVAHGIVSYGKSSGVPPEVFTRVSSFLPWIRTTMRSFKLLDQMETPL
Method: as §1

IRK (h) (InsR) = molecular target: T6, IRK (h) (InsR) (Homo sapiens, UniProt P06213); assay: SafetyScreen87 panel; format: biochemical
T6 construct: purchased Eurofins Discovery (Cerep, France)
Method: as §1

acetylcholinesterase (h) = molecular target: T7, acetylcholinesterase (h) (Homo sapiens, UniProt P22303); assay: SafetyScreen87 panel; format: biochemical; conditions: 1.00E-06, read-out: % Inhibition of Control Specific Binding (1st, 2nd, Mean)
T7 construct: purchased Eurofins Discovery (Cerep, France)
T7 sequence (P22303 32-614): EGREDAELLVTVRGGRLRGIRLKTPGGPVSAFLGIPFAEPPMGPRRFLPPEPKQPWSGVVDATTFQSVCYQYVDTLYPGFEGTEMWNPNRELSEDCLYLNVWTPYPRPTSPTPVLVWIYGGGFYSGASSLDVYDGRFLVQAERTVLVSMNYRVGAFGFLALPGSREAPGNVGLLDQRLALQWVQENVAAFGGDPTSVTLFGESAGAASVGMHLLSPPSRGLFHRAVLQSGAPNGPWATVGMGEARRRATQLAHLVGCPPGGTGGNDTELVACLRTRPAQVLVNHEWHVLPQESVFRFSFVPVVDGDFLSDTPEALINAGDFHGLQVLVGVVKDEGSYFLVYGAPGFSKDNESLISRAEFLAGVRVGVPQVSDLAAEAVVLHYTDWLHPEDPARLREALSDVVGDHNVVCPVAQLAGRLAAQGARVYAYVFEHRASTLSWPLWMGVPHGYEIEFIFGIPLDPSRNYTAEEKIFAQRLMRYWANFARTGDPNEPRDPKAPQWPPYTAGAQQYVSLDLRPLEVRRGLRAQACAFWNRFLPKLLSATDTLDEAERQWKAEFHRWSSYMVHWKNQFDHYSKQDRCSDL
Method: as §1

[1] = molecular target: T8, MAO-B (h) recombinant enzyme (Homo sapiens, UniProt P27338); assay: SafetyScreen87 panel; format: biochemical; conditions: 1.00E-06, read-out: % Inhibition of Control Specific Binding (1st, 2nd, Mean)
T8 construct: purchased Eurofins Discovery (Cerep, France)
Method: as §1

ACE (h) = molecular target: T9, ACE (h) (Homo sapiens, UniProt P12821); assay: SafetyScreen87 panel; format: biochemical; conditions: 1.00E-06, read-out: % Inhibition of Control Specific Binding (1st, 2nd, Mean)
T9 construct: purchased Eurofins Discovery (Cerep, France)
Method: as §1

COX1(h) = molecular target: T10, COX1(h) (Homo sapiens, UniProt P23219); assay: SafetyScreen87 panel; format: biochemical; conditions: 1.00E-06, read-out: % Inhibition of Control Specific Binding (1st, 2nd, Mean)
T10 construct: Eurofins Discovery (Cerep, France) SafetyScreen87 panel
T10 sequence (P23219 24-599): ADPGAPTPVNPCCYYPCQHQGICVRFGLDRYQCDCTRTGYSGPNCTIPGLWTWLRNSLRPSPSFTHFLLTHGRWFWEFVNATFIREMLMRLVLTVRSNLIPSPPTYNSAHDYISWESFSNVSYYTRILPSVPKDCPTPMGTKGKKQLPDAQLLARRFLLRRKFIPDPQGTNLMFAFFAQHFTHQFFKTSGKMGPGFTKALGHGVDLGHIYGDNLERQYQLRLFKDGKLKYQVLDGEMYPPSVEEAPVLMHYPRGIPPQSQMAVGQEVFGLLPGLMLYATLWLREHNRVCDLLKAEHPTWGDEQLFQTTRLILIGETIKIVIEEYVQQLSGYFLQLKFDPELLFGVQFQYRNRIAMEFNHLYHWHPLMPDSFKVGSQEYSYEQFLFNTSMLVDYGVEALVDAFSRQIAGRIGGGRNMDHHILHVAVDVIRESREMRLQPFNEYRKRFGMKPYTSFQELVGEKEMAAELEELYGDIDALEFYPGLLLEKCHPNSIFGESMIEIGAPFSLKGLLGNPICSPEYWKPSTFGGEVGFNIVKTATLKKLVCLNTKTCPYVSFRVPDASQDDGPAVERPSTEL
Method: as §1

ATPase (Na+/K+) = assay: SafetyScreen87 panel; format: biochemical; conditions: 1.00E-06; read-out: % Inhibition of Control Specific Binding (1st, 2nd, Mean)
Method: as §1

PDE3A (h) = molecular target: T11, PDE3A (h) (Homo sapiens, UniProt Q14432); assay: SafetyScreen87 panel; format: biochemical
T11 construct: purchased Eurofins Discovery (Cerep, France)
T11 sequence (Q14432 whole entry): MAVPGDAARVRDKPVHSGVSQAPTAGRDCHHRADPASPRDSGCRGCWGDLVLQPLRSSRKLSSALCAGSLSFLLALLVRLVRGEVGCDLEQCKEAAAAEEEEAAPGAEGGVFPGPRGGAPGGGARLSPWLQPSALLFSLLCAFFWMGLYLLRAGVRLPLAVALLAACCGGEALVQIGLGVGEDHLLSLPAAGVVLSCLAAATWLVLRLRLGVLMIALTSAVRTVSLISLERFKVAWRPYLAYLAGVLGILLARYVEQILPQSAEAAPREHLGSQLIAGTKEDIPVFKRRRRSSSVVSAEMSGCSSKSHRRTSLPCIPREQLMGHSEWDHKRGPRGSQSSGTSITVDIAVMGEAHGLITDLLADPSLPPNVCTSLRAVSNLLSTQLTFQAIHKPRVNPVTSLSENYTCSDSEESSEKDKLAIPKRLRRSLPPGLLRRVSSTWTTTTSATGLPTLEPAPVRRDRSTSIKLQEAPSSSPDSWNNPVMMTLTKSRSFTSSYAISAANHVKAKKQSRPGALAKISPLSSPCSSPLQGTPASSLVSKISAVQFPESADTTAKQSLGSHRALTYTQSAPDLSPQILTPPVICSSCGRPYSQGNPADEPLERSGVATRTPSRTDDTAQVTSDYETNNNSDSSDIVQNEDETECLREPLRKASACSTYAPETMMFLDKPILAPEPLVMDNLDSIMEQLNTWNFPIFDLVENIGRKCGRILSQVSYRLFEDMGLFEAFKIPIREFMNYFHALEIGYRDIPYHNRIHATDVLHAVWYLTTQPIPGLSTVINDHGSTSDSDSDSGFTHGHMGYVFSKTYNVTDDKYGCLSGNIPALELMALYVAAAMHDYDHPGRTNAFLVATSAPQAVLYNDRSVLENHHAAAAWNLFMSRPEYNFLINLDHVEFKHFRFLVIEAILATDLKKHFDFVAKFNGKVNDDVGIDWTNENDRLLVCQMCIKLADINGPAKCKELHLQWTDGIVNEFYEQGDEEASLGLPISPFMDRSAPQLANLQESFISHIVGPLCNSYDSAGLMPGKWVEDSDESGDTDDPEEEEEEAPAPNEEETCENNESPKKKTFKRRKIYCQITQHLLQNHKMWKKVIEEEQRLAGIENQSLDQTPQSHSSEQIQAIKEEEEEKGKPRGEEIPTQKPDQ
Method: as §1

[2] = 1.00E-06; read-out: % Inhibition of Control Specific Binding (1st, 2nd, Mean)
[3] = read-out: % Inhibition of Control Specific Binding (1st, 2nd, Mean); 1.00E-06

CNc1ccc(NCCc2ccccc2OC)cc1.Cl [KDS12025, N^1-(2-methoxyphenethyl)-N^4-methylbenzene-1,4-diamine hydrochloride salt]
Sholl analysis, sum of intersections (stats entry 7h) (aged C57BL/6J mice): 18 month (84.3±5.19, n=8), 30 month (44.4±5.44, n=9), 30 month+KDS (63.6±5.78, n=14) One-way ANOVA with Tukey's multiple comparisons test, F(2,28) = 9.65, p < 0.001 18 month vs. 30 month, p < 0.001; 18 month vs. 30 month+KDS, p = 0.05; 30 month vs. 30 month+KDS, p = 0.06 | NeuN-positive neurons in CA1 (NeuN intensity × neuron number) (aged C57BL/6J mice; Fig. 7f): 18 month (1694642±125526, n=6), 30 month (1149296±45876, n=4), 30 month+KDS (1820376±163596, n=6) One-way ANOVA with Tukey's multiple comparisons test, F(2,13) = 5.78, p = 0.02 18 month vs. 30 month, p = 0.05; 18 month vs. 30 month+KDS, p = 0.77; 30 month vs. 30 month+KDS, p = 0.02 | GFAP-positive area (aged C57BL/6J mice; Fig. 7g): 18 month (272.5±20.8, n=44), 30 month (167.6±12, n=60), 30 month+KDS (212.0±12.4, n=76) One-way ANOVA with Tukey's multiple comparisons test, F(2,177) = 11.24, p < 0.001 18 month vs. 30 month, p < 0.001; 18 month vs. 30 month+KDS, p = 0.01; 30 month vs. 30 month+KDS, p = 0.06 | astrocytic Hbβ expression in the hippocampus (aged C57BL/6J mice; Fig. 7l): 18 month (56.4±1.04, n=48), 30 month (49.5±1.7, n=40), 30 month+KDS (62.8±1.32, n=32) One-way ANOVA with Tukey's multiple comparisons test, F(2,117) = 21.5, p < 0.001 18 month vs. 30 month, p < 0.001; 18 month vs. 30 month+KDS, p = 0.004; 30 month vs. 30 month+KDS, p < 0.001 | MAOB intensity in GFAP-positive areas (aged C57BL/6J mice; Fig. S19b): 18 month (40.7±0.7, n=95), 30 month (71.5±1.04, n=66), 30 month+KDS (51.1±0.8, n=83) One-way ANOVA with Tukey's multiple comparisons test, F(2,241) = 354.7, p < 0.001 18 month vs. 30 month, p < 0.001; 18 month vs. 30 month+KDS, p < 0.001; 30 month vs. 30 month+KDS, p < 0.001 | GABA intensity in GFAP-positive areas (aged C57BL/6J mice; Fig. S19c): 18 month (50.7±0.7, n=95), 30 month (67.03±1.7, n=66), 30 month+KDS (69.2±1.3, n=83) One-way ANOVA with Tukey's multiple comparisons test, F(2,198) = 84.9, p < 0.001 18 month vs. 30 month, p < 0.001; 18 month vs. 30 month+KDS, p < 0.001; 30 month vs. 30 month+KDS, p = 0.47 | TH-positive neurons in the SNpc (aged C57BL/6J mice; Fig. S19d): Unaired t-test, two tailed 30 month (23.75±5.12, n=4), 30 month+KDS (40.2±2.67, n=5), p = 0.02 t = 3.03, df = 7 | activity (COX2(h); mean): 43.8% | activity (COX2(h)): 42.2% and 45.3% | activity (PDE4D2 (h); [2]): 95.3% and 102% | activity (PDE4D2 (h); [3]): 98.7% | activity (PKCalpha (h); mean): 104% | activity (PKCalpha (h)): 105% and 103% | activity (Lck kinase (h); mean): 94.1% | activity (Lck kinase (h)): 95.9% and 92.2% | activity (cathepsin G (h); mean): 100% | activity (cathepsin G (h)): 97.2% and 103% | activity (IRK (h) (InsR); [2]): 109% | activity (IRK (h) (InsR); [3]): 100% | activity (acetylcholinesterase (h); mean): 91.7% | activity (acetylcholinesterase (h)): 92.6% and 90.8% | activity ([1]; mean): 119% | activity [1]: 116% and 121% | activity (ACE (h); mean): 100% | activity (ACE (h)): 101% and 99.4% | activity (COX1(h); mean): 59.3% | activity (COX1(h)): 62.5% and 56.1% | activity (ATPase (Na+/K+)): 97.8% | activity (PDE3A (h); [2]): 89.8% | activity (PDE3A (h); [3]): 87.1% and 92.4%
